Counter-ions that a name gives are not always drawn.
Assay: Aqueous chemical stability in phosphate buffer (HPLC, first-order decay)
Type: physicochemical
Settings: half-life of the compound in buffer phosphate (100 mM), pH 8, 37° C., half-lives >360 min estimated from initial slope at low conversion (<10%)
Procedure: Stock solutions of the compounds in acetonitrile or acetonitrile/methanol were prepared at 20 mg/mL. and 20 μL, spiked into 3 mL of buffer phosphate (100 mM) and incubated at 37° C. Aliquots (50 μL) were sampled at different time points and diluted 20 fold with ammonium formate (pH 3.5)/acetonitrile. The diluted samples were analyzed by HPLC. The peak areas corresponding to the compounds were plotted against time and the data were fitted to a first-order mono-exponential decay where the rate constant and the half-life were determined (Table 2).

| SMILES | pH 8 (t½, min) [min] |
| --- | --- |
| COC(=O)/C=C/C(=O)OC(C)CN(C)C (stereo not drawn) [Compound 6, 1-(dimethylamino)propan-2-yl methyl fumarate hydrochloride] | 2.0 |
| COC(=O)/C=C/C(=O)OCCN1CCSCC1 [Compound 7, Methyl (2-thiomorpholinoethyl) fumarate hydrochloride] | 26.0 |
| COC(=O)/C=C/C(=O)OCCNc1ccccc1 [Compound 8, Methyl (2-(phenylamino)ethyl) fumarate hydrochloride] | 36.0 |
| COC(=O)/C=C/C(=O)OCC(C)(C)N(C)C [Compound 9, 2-(dimethylamino)-2-methylpropyl methyl fumarate hydrochloride] | 7.0 |
| COC(=O)/C=C/C(=O)OCCS(C)(=O)=O [Compound 10, Methyl (2-(methyl sulfonyl)ethyl) fumarate] | 67.0 |
| COC(=O)/C=C/C(=O)OCCN1CCS(=O)(=O)CC1 [Compound 11, 2-(1,1-dioxidothiomorpholino)ethyl methyl fumarate hydrochloride] | >240 |
| COC(=O)/C=C/C(=O)OCCN(C)c1ccccc1 [Compound 12, Methyl (2-(methyl(phenyl)amino)ethyl) fumarate hydrochloride] | 396 |
| COC(=O)/C=C/C(=O)OCCN1C(=O)CCC1=O [Compound 14, 2-(2,5-dioxopyrrolidin-1-yl)ethyl methyl fumarate] | 144 |
| COC(=O)/C=C/C(=O)OCCN1CCCCC1 [Compound 15, Methyl (2-(piperidin-1-yl)ethyl) fumarate hydrochloride] | 3.0 |
| COC(=O)/C=C/C(=O)OCCN1CCOCC1 [Compound 16, Methyl (2-morpholinoethyl) fumarate hydrochloride] | 20.0 |
| COC(=O)/C=C/C(=O)OCCN1CCC2(CC1)OCCO2 [Compound 17, 2-(1,4-dioxa-8-azaspiro[4.5]decan-8-yl)ethyl methyl fumarate hydrochloride] | 11.0 |
| COC(=O)/C=C/C(=O)OCCN1CCCC1 [Compound 18, Methyl (2-(pyrrolidin-1-yl)ethyl) fumarate hydrochloride] | 5.0 |
| COC(=O)/C=C/C(=O)OCCN(C)C [Compound 19, 2-(dimethylamino)ethyl methyl fumarate hydrochloride] | 6.0 |
| CCN(CC)CCOC(=O)/C=C/C(=O)OC [Compound 20, 2-(diethylamino)ethyl methyl fumarate hydrochloride] | 5.0 |
| CCN(CC)C(=O)COC(=O)/C=C/C(=O)OC [Reference Compound A, 2-(diethylamino)-2-oxoethyl methyl fumarate, reference compound] | 120 |
